Experimental data published in ChEMBL document CHEMBL5241079, “Inhibitors of BCL2A1/Bfl-1 protein: Potential stock in cancer therapy” (Eur J Med Chem, 2021).

Experiments:
Bcl-2-related protein A1 [1] = target: T1, Bcl-2-related protein A1 (Homo sapiens, UniProt Q16548); assay: Inhibition of Bfl-1 (unknown origin) by fluorescence polarization assay
T1 sequence (Q16548 whole entry): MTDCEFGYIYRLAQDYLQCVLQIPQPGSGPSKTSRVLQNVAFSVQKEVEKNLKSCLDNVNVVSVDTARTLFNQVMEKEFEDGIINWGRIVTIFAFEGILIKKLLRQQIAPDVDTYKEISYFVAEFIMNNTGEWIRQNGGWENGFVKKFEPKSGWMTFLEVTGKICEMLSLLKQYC

[2] = target: T2, Bcl-2-like protein 11/Bcl-2-related protein A1 (Homo sapiens, UniProt O43521+Q16548); assay: Inhibition of Bfl-1/Bim (unknown origin) by fluorescence polarization assay; assay type: protein-complex assay
T2 sequence (O43521 whole entry, one chain of several): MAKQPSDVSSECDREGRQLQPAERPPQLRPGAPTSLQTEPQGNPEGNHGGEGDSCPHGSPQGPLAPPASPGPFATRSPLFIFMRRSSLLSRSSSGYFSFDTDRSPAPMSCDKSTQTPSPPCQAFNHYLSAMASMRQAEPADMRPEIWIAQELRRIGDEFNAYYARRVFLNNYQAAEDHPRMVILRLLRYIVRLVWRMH

[3] = target: T2, Bcl-2-like protein 11/Bcl-2-related protein A1; assay: Inhibition of Bfl-1/Bim (unknown origin) assessed as inhibition constant by fluorescence polarization assay; assay type: protein-complex assay
[4] = target: T2, Bcl-2-like protein 11/Bcl-2-related protein A1; assay: Inhibition of Bfl-1/Bim (unknown origin) incubated for 30 mins by TR-FRET assay; assay type: protein-complex assay
[5] = Lipophilicity, logP of compound; assay type: physicochemical; details: octanol/water
[6] = target: T3, Apoptosis regulator Bcl-2 (Homo sapiens, UniProt P10415); assay: Displacement of fluorescein tagged BID BH3 peptide from GST-tagged recombinant Bcl-2 (unknown origin) by fluorescence polarization-based competitive binding assay
T3 sequence (P10415 whole entry): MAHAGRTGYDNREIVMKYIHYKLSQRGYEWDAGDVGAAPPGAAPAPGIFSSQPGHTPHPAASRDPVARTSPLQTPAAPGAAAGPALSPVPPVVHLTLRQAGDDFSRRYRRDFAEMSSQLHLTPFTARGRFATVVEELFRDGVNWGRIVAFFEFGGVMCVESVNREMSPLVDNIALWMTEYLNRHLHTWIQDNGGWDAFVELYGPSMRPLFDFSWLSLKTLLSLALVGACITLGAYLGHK

[7] = target: Induced myeloid leukemia cell differentiation protein Mcl-1 (Homo sapiens) (UniProt Q07820); assay: Displacement of fluorescein tagged BID BH3 peptide from GST-tagged recombinant Mcl-1 (unknown origin) by fluorescence polarization-based competitive binding assay
Sequence of Induced myeloid leukemia cell differentiation protein Mcl-1 (Homo sapiens) (Q07820 whole entry): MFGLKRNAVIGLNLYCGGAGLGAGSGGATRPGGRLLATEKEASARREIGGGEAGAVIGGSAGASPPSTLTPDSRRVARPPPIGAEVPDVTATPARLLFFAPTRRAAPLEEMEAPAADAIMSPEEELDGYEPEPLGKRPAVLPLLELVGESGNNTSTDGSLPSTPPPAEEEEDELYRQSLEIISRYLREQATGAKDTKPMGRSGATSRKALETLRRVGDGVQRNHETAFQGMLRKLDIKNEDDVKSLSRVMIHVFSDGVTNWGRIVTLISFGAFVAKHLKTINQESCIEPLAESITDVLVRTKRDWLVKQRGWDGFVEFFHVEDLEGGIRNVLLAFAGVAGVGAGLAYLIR

[8] = target: T3, Apoptosis regulator Bcl-2; assay: Inhibition of Bcl-2 (unknown origin) by fluorescence polarization assay
Bcl-2-related protein A1 [9] = target: T1, Bcl-2-related protein A1; assay: Displacement of fluorescent-labeled BID-BH3 peptide from His-tagged BFL-1 (unknown origin)

CCOc1ccc(N2C(=O)/C(=C/C=C/c3ccccc3)C(=O)NC2=S)cc1
IC50 (Bcl-2-related protein A1 [1]): 1300 nM

CSc1ccc(C(Nc2ccccn2)c2c(C)[nH]c3ccccc23)cc1 (stereo not given)
IC50 [2]: 6300 nM
Ki [3]: 2900 nM
IC50 [4]: 2500 nM
logP [5]: 4

O=C1NC(=S)N(c2cccc(Br)c2)C(=O)/C1=C/C=C/c1ccccc1
IC50 (Bcl-2-related protein A1 [1]): 1600 nM

CC(C)=CCC[C@]1(C)C=Cc2c(O)c3c(c(CC=C(C)C)c2O1)O[C@]12C(=C[C@@H]4C[C@H]1C(C)(C)O[C@@]2(C/C=C(/C)C(=O)O)C4=O)C3=O [GAMBOGIC ACID]
IC5 [6]: 1.21 µM
IC5 [7]: 0.79 µM
IC50 [8]: 122 nM

CC1=C(C2=C(C)C(=O)c3c(cc(O)c(O)c3Cc3ccccc3)C2=O)C(=O)c2cc(O)c(O)c(Cc3ccccc3)c2C1=O
IC50 [8]: 1300 nM

COc1ccc(C(c2c(-c3ccccc3)n(O)c3ccccc23)N2CCN(C)CC2)cc1 (stereo not given)
IC50 [2]: 800 nM
Ki [3]: 400 nM
IC50 [4]: 1400 nM
logP [5]: 4

CC(=O)N[C@@H](Cc1c[nH]c2ccccc12)C(=O)NCCSSCCN(C)C
EC50 (Bcl-2-related protein A1 [9]): 23 nM
